The test system of data set [1] is WM266.4 human melanoma cell line. Briefly: Anti-proliferation assay (MTT). The format is cell-based. As to conditions: WM 266-4, WM266.4 human melanoma cell growth, 24 h. The procedure: WM266.4 melanoma cells were cultured in DMEM/10% fetal bovine serum, in 5% CO2 water saturated atmosphere at 37°C. Cell suspensions (10000/mL) were prepared and 100 µL/well dispensed into 96-well plates (Costar) giving 1000 cells/well. The plates were returned to the incubator for 24h to allow the cells to reattach. These compounds were initially prepared at 20mM in DMSO. Aliquots (200 µL) were diluted into 20mL culture medium giving 200 µM, and 10 serial dilutions of 3x prepared. Aliquots (100 µL) of each dilution were added to the wells, giving doses ranging from 100 µM to 0.005 µM. After a further incubated at 37°C for 24h in a humidified atmosphere with 5% CO2, the cell viability was assessed by the conventional 3-(4,5-dimethylthiazol-2-yl)-2,5-diphenyltetrazolium bromide (MTT) reduction assay and carried out strictly according to the manufacturer instructions (Sigma). The absorbance at 590nm was recorded using LX300 Epson Diagnostic micro-plate reader. Then GI50 was calculated using SPSS 13.0 software.

In another data set the target is B-Raf^V600E. Briefly: V600E mutant B-Raf kinase inhibitory assay (B-Raf^V600E mediated MEK phosphorylation).
Sequence of B-Raf^V600E (P28028 whole entry V585E): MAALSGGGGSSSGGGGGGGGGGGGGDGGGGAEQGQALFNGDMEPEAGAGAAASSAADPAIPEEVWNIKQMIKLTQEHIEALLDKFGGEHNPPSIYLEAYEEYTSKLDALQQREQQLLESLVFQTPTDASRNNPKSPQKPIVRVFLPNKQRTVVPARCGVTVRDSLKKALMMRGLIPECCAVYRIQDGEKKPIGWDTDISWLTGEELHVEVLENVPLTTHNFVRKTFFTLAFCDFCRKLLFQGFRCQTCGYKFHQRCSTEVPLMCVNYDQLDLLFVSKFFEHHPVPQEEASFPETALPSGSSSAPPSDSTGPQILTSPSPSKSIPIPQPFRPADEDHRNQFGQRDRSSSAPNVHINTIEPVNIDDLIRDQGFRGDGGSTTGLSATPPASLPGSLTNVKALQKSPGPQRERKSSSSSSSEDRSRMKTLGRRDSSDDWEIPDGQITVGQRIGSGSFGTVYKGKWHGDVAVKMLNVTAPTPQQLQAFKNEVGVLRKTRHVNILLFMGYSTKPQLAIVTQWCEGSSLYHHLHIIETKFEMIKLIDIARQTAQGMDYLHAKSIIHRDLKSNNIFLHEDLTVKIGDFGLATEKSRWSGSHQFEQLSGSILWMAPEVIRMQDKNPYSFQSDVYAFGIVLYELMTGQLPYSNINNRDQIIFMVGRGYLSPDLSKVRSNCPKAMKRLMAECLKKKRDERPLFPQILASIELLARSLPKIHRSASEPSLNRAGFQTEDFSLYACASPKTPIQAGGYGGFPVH

Method for B-Raf^V600E: Briefly, 7.5 ng Mouse Full-Length GST-tagged BRAF^V600E (Invitrogen, PV3849) was preincubated at room temperature for 1 h with 1 µL drug and 4 µL assay dilution buffer. The kinase assay was initiated when 5 µL of a solution containing 200 ng recombinant human full length, N-terminal His-tagged MEK1 (Invitrogen), 200 µM ATP, and 30 mM MgCl2 in assay dilution buffer was added. The kinase reaction was allowed to continue at room temperature for 25 min and was then quenched with 5 µL 5x protein denaturing buffer (LDS) solution. Protein was further denatured by heating for 5 min at 70°C. 10 µL of each reaction was loaded into a 15-well, 4–12% precast NuPage gel (Invitrogen) and run at 200 V, and upon completion, the front, which contained excess hot ATP, was cut from the gel and discarded. The gel was then dried and developed onto a phosphor screen.

The compound `Oc1ccccc1C1CC(c2ccc(F)cc2)=NN1c1ccccc1` (centres unmarked) [Compound C1, 2-(3-(4-fluorophenyl)-1-phenyl-4,5-dihydro-1H-pyrazol-5-yl)phenol] came in with a melting point of 38 to 41 °C. This compound displayed a GI50 in data set [1] of over 50000 nM. This compound also returned an IC50 at B-Raf^V600E of 71900 ± 6770 nM.

On to `Oc1ccccc1C1CC(c2ccc(Cl)cc2)=NN1c1ccccc1` (centres unmarked) [Compound C2, 2-(3-(4-chlorophenyl)-1-phenyl-4,5-dihydro-1H-pyrazol-5-yl)phenol], for which the melting point fell in the range of 54 to 56 °C. The compound further showed a GI50 in data set [1] of 2010 ± 130 nM. Moreover, at B-Raf^V600E, the IC50 is 500 ± 40 nM.

Consider `Oc1ccccc1C1CC(c2ccc(Br)cc2)=NN1c1ccccc1` (centres unmarked) [Compound C3, 2-(3-(4-bromophenyl)-1-phenyl-4,5-dihydro-1H-pyrazol-5-yl)phenol], for which the melting point is 65 to 68 °C. In data set [1], this compound showed a GI50 of 2090 ± 180 nM. The compound further returned an IC50 at B-Raf^V600E of 630 ± 60 nM.

The compound `Cc1ccc(C2=NN(c3ccccc3)C(c3ccccc3O)C2)cc1` (centres unmarked) [Compound C4, 2-(1-phenyl-3-(p-tolyl)-4,5-dihydro-1H-pyrazol-5-yl)phenol] displayed a melting point of 32 to 34 °C. In addition, the GI50 in data set [1] came to 2850 ± 230 nM. It took 1490 ± 110 nM to reach half-maximal inhibition against B-Raf^V600E (IC50).

On to `COc1ccc(C2=NN(c3ccccc3)C(c3ccccc3O)C2)cc1` (centres unmarked) [Compound C5, 2-(3-(4-methoxyphenyl)-1-phenyl-4,5-dihydro-1H-pyrazol-5-yl)phenol], for which the melting point lay within 35 to 37 °C. The compound also had a GI50 in data set [1] of 1980 ± 170 nM. At B-Raf^V600E, this compound gave an IC50 of 510 ± 50 nM.

`Oc1ccccc1C1CC(c2ccc(Cl)c(Cl)c2)=NN1c1ccccc1` (centres unmarked) [Compound C6, 2-(3-(3,4-dichlorophenyl)-1-phenyl-4,5-dihydro-1H-pyrazol-5-yl)phenol] had a melting point of 57 to 59 °C. Also, it took 1750 ± 120 nM to inhibit growth in data set [1] by half (GI50). The IC50 against B-Raf^V600E is 150 ± 10 nM.

Compound `Oc1ccc(Cl)cc1C1CC(c2ccc(F)cc2)=NN1c1ccccc1` (centres unmarked) [Compound C7, 4-chloro-2-(3-(4-fluorophenyl)-1-phenyl-4,5-dihydro-1H-pyrazol-5-yl)phenol] returned a melting point of 60 to 63 °C. The compound also gave a GI50 in data set [1] of 4260 ± 360 nM. Besides, the IC50 at B-Raf^V600E was 2600 ± 230 nM.

`Oc1ccc(Cl)cc1C1CC(c2ccc(Cl)cc2)=NN1c1ccccc1` (centres unmarked) [Compound C8, 4-chloro-2-(3-(4-chlorophenyl)-1-phenyl-4,5-dihydro-1H-pyrazol-5-yl)phenol]: the melting point is 68 to 71 °C. In data set [1], the GI50 turned out to be 4390 ± 310 nM. In addition, inhibition against B-Raf^V600E was half-maximal at 2660 ± 190 nM (IC50).

Consider `Oc1ccc(Cl)cc1C1CC(c2ccc(Br)cc2)=NN1c1ccccc1` (centres unmarked) [Compound C9, 2-(3-(4-bromophenyl)-1-phenyl-4,5-dihydro-1H-pyrazol-5-yl)-4-chlorophenol], for which the melting point fell in the range of 90 to 93 °C. Halving of growth in data set [1] (GI50) required 2730 ± 210 nM. Moreover, the IC50 against B-Raf^V600E amounted to 1370 ± 130 nM.

In turn, `Cc1ccc(C2=NN(c3ccccc3)C(c3cc(Cl)ccc3O)C2)cc1` (centres unmarked) [Compound C10, 4-chloro-2-(1-phenyl-3-(p-tolyl)-4,5-dihydro-1H-pyrazol-5-yl)phenol] came in with a melting point of 43 to 46 °C. In addition, in data set [1], the GI50 amounted to 5370 ± 490 nM. The same compound yielded an IC50 against B-Raf^V600E of 3240 ± 280 nM.

In the case of `COc1ccc(C2=NN(c3ccccc3)C(c3cc(Cl)ccc3O)C2)cc1` (centres unmarked) [Compound C11, 4-chloro-2-(3-(4-methoxyphenyl)-1-phenyl-4,5-dihydro-1H-pyrazol-5-yl)phenol], the melting point fell in the range of 49 to 51 °C. For the same compound, in data set [1], the GI50 was 2430 ± 160 nM. Besides, the IC50 at B-Raf^V600E turned out to be 1070 ± 80 nM.

`Oc1ccc(Cl)cc1C1CC(c2ccc(Cl)c(Cl)c2)=NN1c1ccccc1` (centres unmarked) [Compound C12, 4-chloro-2-(3-(3,4-dichlorophenyl)-1-phenyl-4,5-dihydro-1H-pyrazol-5-yl)phenol] registered a melting point of 77 to 79 °C. In data set [1], this compound yielded a GI50 of 1990 ± 130 nM. For the same compound, at B-Raf^V600E, the IC50 stood at 500 ± 50 nM.

As to `Oc1ccc(Br)cc1C1CC(c2ccc(F)cc2)=NN1c1ccccc1` (centres unmarked) [Compound C13, 4-bromo-2-(3-(4-fluorophenyl)-1-phenyl-4,5-dihydro-1H-pyrazol-5-yl)phenol], the melting point was in the range of 73 to 76 °C. In addition, halving of growth in data set [1] (GI50) required 4450 ± 410 nM. The IC50 at B-Raf^V600E came to 2730 ± 190 nM.

`Oc1ccc(Br)cc1C1CC(c2ccc(Cl)cc2)=NN1c1ccccc1` (centres unmarked) [Compound C14, 4-bromo-2-(3-(4-chlorophenyl)-1-phenyl-4,5-dihydro-1H-pyrazol-5-yl)phenol] came in with a melting point of 88 to 91 °C. Further, in data set [1], halving of growth (GI50) required 3690 ± 320 nM. On B-Raf^V600E, half-maximal inhibition (IC50) required 2200 ± 200 nM.

Take `Oc1ccc(Br)cc1C1CC(c2ccc(Br)cc2)=NN1c1ccccc1` (centres unmarked) [Compound C15, 4-bromo-2-(3-(4-bromophenyl)-1-phenyl-4,5-dihydro-1H-pyrazol-5-yl)phenol]: the melting point lay within 104 to 106 °C. In addition, growth in data set [1] was halved (GI50) at 2650 ± 190 nM. Besides, on B-Raf^V600E, half-maximal inhibition (IC50) required 1290 ± 100 nM.

`Cc1ccc(C2=NN(c3ccccc3)C(c3cc(Br)ccc3O)C2)cc1` (centres unmarked) [Compound C16, 4-bromo-2-(1-phenyl-3-(p-tolyl)-4,5-dihydro-1H-pyrazol-5-yl)phenol] had a melting point of 59 to 63 °C. Also, the GI50 in data set [1] worked out at 4550 ± 440 nM. Also, the IC50 against B-Raf^V600E was 2780 ± 210 nM.

The compound `COc1ccc(C2=NN(c3ccccc3)C(c3cc(Br)ccc3O)C2)cc1` (centres unmarked) [Compound C17, 4-bromo-2-(3-(4-methoxyphenyl)-1-phenyl-4,5-dihydro-1H-pyrazol-5-yl)phenol] came in with a melting point of 65 to 67 °C. In data set [1], this compound showed a GI50 of 2030 ± 180 nM. Further, the IC50 against B-Raf^V600E is 570 ± 50 nM.

`Oc1ccc(Br)cc1C1CC(c2ccc(Cl)c(Cl)c2)=NN1c1ccccc1` (centres unmarked) [Compound C18, 4-bromo-2-(3-(3,4-dichlorophenyl)-1-phenyl-4,5-dihydro-1H-pyrazol-5-yl)phenol] gave a melting point of 95 to 98 °C. Moreover, growth in data set [1] was halved (GI50) at 1880 ± 150 nM. For the same compound, the IC50 at B-Raf^V600E was determined as 340 ± 20 nM.

`Oc1c(Cl)cc(Cl)cc1C1CC(c2ccc(F)cc2)=NN1c1ccccc1` (centres unmarked) [Compound C19, 2,4-dichloro-6-(3-(4-fluorophenyl)-1-phenyl-4,5-dihydro-1H-pyrazol-5-yl)phenol]: the melting point is 37 to 39 °C. The compound further gave a GI50 in data set [1] of 3760 ± 320 nM. In addition, half-maximal inhibition against B-Raf^V600E (IC50) was put at 2260 ± 190 nM.

With `Oc1c(Cl)cc(Cl)cc1C1CC(c2ccc(Cl)cc2)=NN1c1ccccc1` (centres unmarked) [Compound C20, 2,4-dichloro-6-(3-(4-chlorophenyl)-1-phenyl-4,5-dihydro-1H-pyrazol-5-yl)phenol], the melting point lay in the range of 42 to 43 °C. In addition, the GI50 in data set [1] is 3590 ± 280 nM. The compound also yielded an IC50 against B-Raf^V600E of 2140 ± 190 nM.

With `Oc1c(Cl)cc(Cl)cc1C1CC(c2ccc(Br)cc2)=NN1c1ccccc1` (centres unmarked) [Compound C21, 2-(3-(4-bromophenyl)-1-phenyl-4,5-dihydro-1H-pyrazol-5-yl)-4,6-dichlorophenol], the melting point was 56 to 59 °C. In data set [1], this compound showed a GI50 of 5130 ± 490 nM. The same compound registered an IC50 on B-Raf^V600E of 3120 ± 260 nM.

`Cc1ccc(C2=NN(c3ccccc3)C(c3cc(Cl)cc(Cl)c3O)C2)cc1` (centres unmarked) [Compound C22, 2,4-dichloro-6-(1-phenyl-3-(p-tolyl)-4,5-dihydro-1H-pyrazol-5-yl)phenol] had a melting point of 29 to 31 °C. This compound gave a GI50 in data set [1] of 23900 ± 1990 nM. Besides, the IC50 against B-Raf^V600E stood at 7370 ± 650 nM.

Compound `COc1ccc(C2=NN(c3ccccc3)C(c3cc(Cl)cc(Cl)c3O)C2)cc1` (centres unmarked) [Compound C23, 2,4-dichloro-6-(3-(4-methoxyphenyl)-1-phenyl-4,5-dihydro-1H-pyrazol-5-yl)phenol] returned a melting point of 33 to 34 °C. Moreover, in data set [1], the GI50 was determined as 2380 ± 230 nM. For the same compound, on B-Raf^V600E, the IC50 was 1010 ± 80 nM.

As to `Oc1c(Cl)cc(Cl)cc1C1CC(c2ccc(Cl)c(Cl)c2)=NN1c1ccccc1` (centres unmarked) [Compound C24, 2,4-dichloro-6-(3-(3,4-dichlorophenyl)-1-phenyl-4,5-dihydro-1H-pyrazol-5-yl)phenol], the melting point is 63 to 65 °C. Besides, in data set [1], the GI50 amounted to 2340 ± 170 nM. The IC50 at B-Raf^V600E was 970 ± 90 nM.

With `C#Cc1cccc(Nc2ncnc3cc(OCCOC)c(OCCOC)cc23)c1` [Erlotinib, reference compound], it took 8120 ± 750 nM to inhibit growth in data set [1] by half (GI50).

In turn, `CCCS(=O)(=O)Nc1ccc(F)c(C(=O)c2c[nH]c3ncc(-c4ccc(Cl)cc4)cc23)c1F` [Vemurafenib, reference compound] showed a GI50 in data set [1] of 210 ± 20 nM.

The values are drawn from publication PMC4020744, “Modification, Biological Evaluation and 3D QSAR Studies of Novel 2-(1,3-Diaryl- 4,5-Dihydro-1H-Pyrazol-5-yl)Phenol Derivatives as Inhibitors of B-Raf Kinase” (PLoS ONE, 2014).
